According to patent publication US20070218460A1, “Method of Estimating Toxicity of Drug” (TAKEDA PHARMACEUTICAL COMPANY LIMITED, priority 2003, published 2007):

Columns and labels:
[1] = system: tagln; assay: Real-time quantitative PCR of PLsis marker gene expression; format: cell-based, human; settings: HepG2 cells, 24 hr exposure, relative value, control group = 1.0, GAPDH internal standard, n=3
Description: (§1) Using RNeasy Mini Kit (QIAGEN), total RNA was purified from the cells, and cDNA was synthesized in a 100 μL system using TaqMan Reverse Transcription Reagents (PE Applied Biosystems).
(§2) As the primer for glyceraldehyde-3-phosphoric acid dehydrogenase (GAPDH) and VIC labeled probe, those attached to TaqMan GAPDH Control Reagents (PE Applied Biosystems) were used.
(§3) Using 100 μL of the reaction mixture containing 5 μL of cDNA (1×TaqMan Universal PCR Master Mix (PE Applied Biosystems), 200 nM forward primer, 200 nM reverse primer and 200 nM TaqMan probe), 40 cycles of (1 cycle=95° C., 15 sec; 60° C., 1 min) PCR were performed. PCR and fluorescence detection were performed using ABI PRISM Sequence Detector 7000 (PE Applied Biosystems). As the internal standard, GAPDH was used to amend the measurement values. For the determination of significant difference, t-test was used (n=3).
(§4) For each test compound, the expression variation rate of 12 genes each relative to the control group was determined.

[2] = system: fabp1; assay: as above; format: cell-based, human; settings: HepG2 cells, 24 hr exposure, relative value, control group = 1.0, GAPDH internal standard, n=3
Description: as §1, §2, §3, §4

[3] = system: asah1; assay: as above; format: cell-based, human; settings: HepG2 cells, 24 hr exposure, relative value, control group = 1.0, GAPDH internal standard, n=3
Description: as §1, §2, §3, §4

[4] = system: kiaa1001; assay: as above; format: cell-based, human; settings: HepG2 cells, 24 hr exposure, relative value, control group = 1.0, GAPDH internal standard, n=3
Description: as §1, §2, §3, §4

[5] = system: nr0b2; assay: as above; format: cell-based, human; settings: HepG2 cells, 24 hr exposure, relative value, control group = 1.0, GAPDH internal standard, n=3
Description: as §1, §2, §3, §4

[6] = system: hpn; assay: as above; format: cell-based, human; settings: HepG2 cells, 24 hr exposure, relative value, control group = 1.0, GAPDH internal standard, n=3
Description: as §1, §2, §3, §4

[7] = system: lss; assay: as above; format: cell-based, human; settings: HepG2 cells, 24 hr exposure, relative value, control group = 1.0, GAPDH internal standard, n=3
Description: as §1, §2, §3, §4

[8] = system: mgc4171; assay: as above; format: cell-based, human; settings: HepG2 cells, 24 hr exposure, relative value, control group = 1.0, GAPDH internal standard, n=3
Description: as §1, §2, §3, §4

[9] = system: depp; assay: as above; format: cell-based, human; settings: HepG2 cells, 24 hr exposure, relative value, control group = 1.0, GAPDH internal standard, n=3
Description: as §1, §2, §3, §4

[10] = system: flj22362; assay: as above; format: cell-based, human; settings: HepG2 cells, 24 hr exposure, relative value, control group = 1.0, GAPDH internal standard, n=3
Description: as §1, §2, §3, §4

[11] = system: slc2a3; assay: as above; format: cell-based, human; settings: HepG2 cells, 24 hr exposure, relative value, control group = 1.0, GAPDH internal standard, n=3
Description: as §1, §2, §3, §4

[12] = system: serpina3; assay: as above; format: cell-based, human; settings: HepG2 cells, 24 hr exposure, relative value, control group = 1.0, GAPDH internal standard, n=3
Description: as §1, §2, §3, §4

[13] = system: HepG2 cells; assay: Electron-microscopic examination of PLsis induction potential (myelin-like structure)
Description: Using 30 kinds of the following commercially available drugs as test compounds, the level of PLsis induction potential was examined with the emergence of an intracellular myelin-like structure or a structure having a high electron density, which is an early image thereof, as an index by electronmicroscopic observation.
HepG2 cells (purchased from ATCC) were exposed to the test compound by a conventional method. HepG2 cells used were of the cell growth phase. The attached HepG2 cells were washed twice with. Dulbecco's phosphate buffered saline (calcium and magnesium salt free; PBS(−))(Dainippon Pharmaceutical Co., Ltd.) containing 0.05 w/v % EDTA, detached with a cell dissociation solution of 0.25 vol % trypsin-1 mmol/L EDTA (Gibco BRL) diluted 2-fold with PBS(−), centrifuged to remove the supernatant, and adjusted to a concentration of 2×10^5 cells/250 μL with a culture medium [Dulbecco's modified Eagle medium (DMEM)(Gibco BRL) supplemented with 50 U/mL penicillin (Gibco BRL)-[…] streptomycin (Gibco BRL) and 5 vol % FBS (Bio whittaker)]. DMSO alone or a culture medium containing the above-mentioned test compound in DMSO solution was dispensed to a well by 250 μL, the above-mentioned cell suspension (250 μL) was added, and cultured in a CO2 incubator (7100; Napco) under an atmosphere of 5% CO2—95% air at 37° C.
After culture for 72 hr, the culture medium was removed, and the cells were fixed with 1 w/v % glutaraldehyde solution. After fixing with 2 w/v % osmic acid for 2 hr by a conventional method and dehydrating with an alcohol series, the cells were embedded in a resin (Quetol 812). Ultrathin slices were prepared and, after electron staining, observed with an electron microscope (H-300; Hitachi) and photographed in 3 or more pictures per each sample (magnification ×5000). The processing after post-fixation was performed by Applied Medical Research.

[14] = system: HepG2 cells; assay: Highest concentration at which cells were viable after 72 hr exposure; format: cell-based, human

SMILES | expression variation rate tagln [1] | expression variation rate fabp1 [2] | expression variation rate asah1 [3] | expression variation rate kiaa1001 [4] | expression variation rate nr0b2 [5] | expression variation rate hpn [6] | expression variation rate lss [7] | expression variation rate mgc4171 [8] | expression variation rate depp [9] | expression variation rate flj22362 [10] | expression variation rate slc2a3 [11] | expression variation rate serpina3 [12] | frequency of appearance of myelin-like structure [13] | addition concentration (highest concentration at which cells survived after 72 hr of culture) [14]
CN(C)CCCN1c2ccccc2CCc2ccc(Cl)cc21 [clomipramine] | 0.78 | 2.36 | 0.82 | 3.83 | 0.98 | 2.39 | 1.52 | 1.41 | 2.08 | 1.46 | 0.63 | 2.03 | + | 8.3 µmol/L
CC(C)N(CCC(C(N)=O)(c1ccccc1)c1ccccn1)C(C)C (centres unmarked) [disopyramide] | 0.99 | 1.02 | 1.85 | 0.94 | 0.63 | 1.12 | 1.14 | 1.21 | 0.90 | 0.98 | 1.03 | 0.99 | − | 25 µmol/L
CC[C@H]1OC(=O)[C@H](C)[C@@H](O[C@H]2C[C@@](C)(OC)[C@@H](O)[C@H](C)O2)[C@H](C)[C@@H](O[C@@H]2O[C@H](C)C[C@H](N(C)C)[C@H]2O)[C@](C)(O)C[C@@H](C)C(=O)[C@H](C)[C@@H](O)[C@]1(C)O [erythromycin] | 0.85 | 0.73 | 0.90 | 0.78 | 0.90 | 0.87 | 0.87 | 0.86 | 0.71 | 0.92 | 0.73 | 0.85 | − | 25 µmol/L
O=C(NCC1CCCCN1)c1cc(OCC(F)(F)F)ccc1OCC(F)(F)F (centres unmarked) [flecainide] | 0.86 | 1.50 | 2.42 | 2.10 | 1.02 | 1.26 | 1.22 | 1.57 | 1.73 | 1.65 | 0.46 | 1.60 | − | 25 µmol/L

Further lines, with some results ahead:

expression variation rate tagln [1] | expression variation rate fabp1 [2] | expression variation rate asah1 [3] | expression variation rate kiaa1001 [4] | expression variation rate nr0b2 [5] | expression variation rate hpn [6] | expression variation rate lss [7] | expression variation rate mgc4171 [8] | expression variation rate depp [9] | expression variation rate flj22362 [10] | expression variation rate slc2a3 [11] | expression variation rate serpina3 [12] | frequency of appearance of myelin-like structure [13] | SMILES | addition concentration (highest concentration at which cells survived after 72 hr of culture) [14]
0.20 | 2.80 | 6.55 | 1.93 | 2.70 | 2.39 | 3.51 | 1.34 | 3.08 | 2.15 | 0.09 | 1.73 | +++ | CNCCC(Oc1ccc(C(F)(F)F)cc1)c1ccccc1 (centres unmarked) [fluoxetine] | 8.3 µmol/L
0.52 | 1.50 | 0.77 | 1.32 | 1.49 | 1.43 | 1.52 | 1.24 | 1.38 | 0.93 | 0.44 | 1.31 | − | O=C(CCCN1CCC(O)(c2ccc(Cl)cc2)CC1)c1ccc(F)cc1 [haloperidol] | 8.3 µmol/L
0.71 | 5.30 | 1.47 | 2.24 | 2.36 | 2.71 | 4.33 | 1.53 | 2.29 | 1.95 | 0.48 | 2.37 | + | CC(=O)N1CCN(c2ccc(OCC3COC(Cn4ccnc4)(c4ccc(Cl)cc4Cl)O3)cc2)CC1 (centres unmarked) [ketoconazole] | 8.3 µmol/L
0.90 | 0.88 | 1.10 | 0.70 | 0.79 | 0.83 | 0.75 | 0.79 | 0.83 | 0.83 | 1.07 | 0.92 | − | C[C@H]1COc2c(N3CCN(C)CC3)c(F)cc3c(=O)c(C(=O)O)cn1c23 [levofloxacin] | 25 µmol/L
0.74 | 0.75 | 1.17 | 0.86 | 0.81 | 0.72 | 0.78 | 0.77 | 0.79 | 0.68 | 0.94 | 0.82 | − | CC1COc2c(N3CCN(C)CC3)c(F)cc3c(=O)c(C(=O)O)cn1c23 (centres unmarked) [ofloxacin] | 25 µmol/L
0.26 | 2.49 | 3.12 | 1.98 | 2.09 | 2.22 | 3.10 | 1.93 | 2.55 | 3.42 | 0.22 | 2.50 | ++ | C1CCC(C(CC2CCCCN2)C2CCCCC2)CC1 (centres unmarked) [perhexiline] | 8.3 µmol/L
